{"source": "patent US20220226484A1", "about": "“THERAPEUTIC PEPTIDES” (COHBAR, INC., priority 2019, published 2022)", "key": {"[1]": {"tested_on": "human PC-3 tumor cells", "assay": "Mouse PC-3 xenograft model of prostate cancer", "type": "in vivo", "conditions": "5 mg/kg daily intraperitoneal", "protocol": "Male BALB/c nude mice, 6-7 weeks of age, 20±2 g were inoculated subcutaneously in the right lower flank with a single volume of 0.1 ml of cell suspension containing about 1×10^7 human PC-3 tumor cells. Animals were weighed and randomized into treatment groups when the mean tumor size was around 130 mm^3. Groups of 10 animals received daily injections of test article (5 mg/kg) by intraperitoneal administration. Tumor size was measured twice per week in 2 dimensions using a calipers and tumor volume calculated by standard methods. The study was concluded on day 21 post initial-dosing (day 0)."}, "[2]": {"tested_on": "RENCA cells (renal adenocarcinoma cell line)", "assay": "Tumor growth in RENCA syngeneic mouse model", "type": "in vivo", "conditions": "10 mg/kg daily intraperitoneal, female BALB/c mice, 10 per group", "protocol": "The effect of the peptides on tumor growth can be assessed by monitoring tumor volume in syngeneic mouse cancer models such as RENCA, a mouse tumor model using a renal adenocarcinoma cell line. RENCA cells were grown in culture. On Day 0, 1.0×10^6 cells in 100 μl PBS were implanted into the mammary fat pad of female BALB/c mice. […] Test peptides were administered daily at a dose of 10 mg/kg by intraperitoneal administration. Primary tumor volumes were determined by caliper measurements twice a week. The growth rate of each tumor was calculated as the percent of the mean tumor growth of tumors observed in the control vehicle-treated group, as determined on Day 20 of the study."}, "[3]": {"tested_on": "DSS-induced colitis in female C57BL/6NTac mice", "assay": "DSS-induced colitis mouse model of inflammatory bowel disease", "type": "in vivo", "conditions": "3% DSS 8 days; peptides 10 mg/kg/day intraperitoneal; CsA 80 mg/kg/day oral; AUC over 8 days", "description": "The effect of the peptides on inflammatory disease can be assessed by monitoring fecal blood, stool consistency, and body weight loss in a DSS-induced colitis mouse model. Colitis was induced in female C57BL/6NTac mice (9-11 weeks old) by continuous ad libitum oral administration of dextran sodium sulfate (DSS) 3% in sterile drinking water for 8 days. Control (No DSS) mice received sterile water instead of DSS solution. Peptides were administered intraperitoneally once daily at 10 mg/kg/day for 8 days in combination with oral DSS. […] Daily assessments included body weight loss score, fecal blood score, stool consistency score, and composite disease activity index (DAI) score, based on the first three parameters combined. Scores recorded on each day over 8 days were used to calculate area under the curve (AUC) values for each endpoint in individual animals."}, "[4]": {"tested_on": "bleomycin-induced lung fibrosis in male C57BL/6 mice", "assay": "Therapeutic mouse model of idiopathic pulmonary fibrosis (bleomycin)", "type": "in vivo", "conditions": "peptide 5 mg/kg/day intraperitoneal, nintedanib 60 mg/kg/day PO", "text": "The effect of the peptides on the progression of established lung fibrosis can be assessed by monitoring lung fibrosis, lung weight, inflammatory cells in bronchoalveolar lavage fluid (BALF), soluble collagen in BALF, and body weight change in a therapeutic mouse model of idiopathic pulmonary fibrosis. Lung fibrosis was induced in lungs of male C57BL/6 mice between the ages of 6 to 8 weeks by nasophayngeal administration of bleomycin (1.5 U/kg using bleomycin clinical formulation diluted in PBS). A control group of animals were administered saline by the nasopharyngeal route (no-bleomycin control group). After one week, bleomycin-treated animals were randomized to treatment groups (N=10 per group) by body weight and treated daily with vehicle control, nintedanib positive control (60 mg/kg/day PO) or peptide (5 mg/kg/day by intraperitoneal injection). After 14 days of treatment (Day 21), lungs were removed and weighed. The post-caval lobe was separated and snap frozen. The lungs were flushed with Hanks Buffer and bronchoalveolar lavage fluid (BALF) was harvested from each animal. Total BALF leukocyte were counted. Slides were prepared from the remaining BALF leukocytes, fixed and stained with May Geimsa stain and the differential counts were recorded manually. BALF was evaluated for soluble collagen using a Sircol assay. Lungs were fixed in 10% neutral buffered formalin (NBF) for histopathological analysis. Fibrosis was assessed by histopathological analysis of H&E stained mouse lungs using an Ashcroft scoring system."}, "[5]": {"tested_on": "human lung fibroblasts", "assay": "Fibroblast-to-myofibroblast transition assay, alpha smooth muscle actin expression", "type": "cell-based", "conditions": "1.25 ng/ml TGF-β1, 72 hours", "text": "The effect of the peptides on fibrosis can be assessed in vitro using a fibroblast-to-myofibroblast transition (FMT) assay and monitoring alpha smooth muscle actin ([…]SMA) produced by cultured cells such as healthy primary human lung fibroblast cells. Assay performed by Charles River Discovery Research Services UK Limited (Essex, UK). Transforming growth factor beta-1 (TGF-β1) stimulated alpha smooth muscle actin (αSMA) expression in human lung fibroblasts derived from three healthy donors was used to assess anti-fibrotic activity. Peptides were prepared as 10 mM stock in DMSO and tested in eight (8)-step concentration response curves using 0.5 Log M dilution steps with 10 μM as highest concentration (0.1% DMSO final). Transforming Growth Factor beta (TGF-β1) was used as a potent inducer of FMT as measured by increased αSMA expression. Isolated lung fibroblasts were seeded in 96-well or 384-well PureCol coated plates. Five days post-seeding, medium was refreshed, and peptides, reference compounds, and controls are added to the cells. After one hour, 1.25 ng/ml TGF-β1 was added to induce FMT. Expression of αSMA was measured 72 hours later by immunostaining, assessed by high content imaging on an IN Cell Analyzer 2200 (GE Healthcare) and quantified using an in-house developed algorithm with the IN Cell developer software (GE Healthcare). The output of the algorithm represents the staining intensity multiplied by the stained area (DxA levels). Co-staining of cell nuclei with DAPI was performed to quantify cell number, a measure of potential toxicity. The αSMA expression levels observed using 0.1% DMSO (negative control) were used to calculate percentage inhibition of αSMA by each peptide."}}, "note": "Positions of bridges follow the written chain, without caps; N, C: chain ends. Primed or numbered codes have the meaning given here. Chains are numbered I, II in the order given. No end group written: not given here. PEG12′ = not defined here"}
{"substance": "RVIRMCLGVGLLGDLAG [SEQ ID NO: 3]", "values": [{"measurement": "Mean Tumor Volume", "setting": "[1]; Time 0 Days, N = 10", "value": 131, "unit": "mm^3"}, {"measurement": "Mean Tumor Volume", "setting": "[1]; Time 4 Days", "value": 136, "unit": "mm^3"}, {"measurement": "Mean Tumor Volume", "setting": "[1]; Time 7 Days", "value": 203, "unit": "mm^3"}, {"measurement": "Mean Tumor Volume", "setting": "[1]; Time 11 Days", "value": 270, "unit": "mm^3"}, {"measurement": "Mean Tumor Volume", "setting": "[1]; Time 14 Days", "value": 400, "unit": "mm^3"}, {"measurement": "Mean Tumor Volume", "setting": "[1]; Time 18 Days", "value": 596, "unit": "mm^3"}, {"measurement": "Mean Tumor Volume", "setting": "[1]; Time 22 Days", "value": 806, "unit": "mm^3"}]}
{"substance": "RVIRMCLGVGLLGDLAGK{PEG12} (chain 1 RVIRMCLGVGLLGDLAGK(PEG12′); chain 2 RVIRMCLGVGLLGDLAGK(PEG12′); disulfide I:6-II:6) [SEQ ID NO: 28]", "values": [{"measurement": "Mean (SEM) Percent of Control Group Tumor Growth at Day 20", "setting": "[2]", "value": "57.3 (14.4) Percent"}, {"measurement": "Mean (SEM) Body Weight Loss Score AUC", "setting": "[3]", "value": "1.70 (0.63)"}, {"measurement": "Mean (SEM) Composite Disease Activity Index (DAI) Score AUC", "setting": "[3]", "value": "16.6 (1.25)"}, {"measurement": "Mean (SEM) Fecal Blood Score AUC", "setting": "[3]", "value": "10.3 (0.82)"}, {"measurement": "Mean (SEM) Stool Consistency Score AUC", "setting": "[3]", "value": "4.60 (0.74)"}, {"measurement": "Mean (SEM) Leukocyte Count in BALF (Percent of Bleomycin Control)", "setting": "[4]; Day 21, 14 days of treatment", "value": "72.2 (5.96) Percent"}, {"measurement": "Mean (SEM) Lung Weight (Percent of Bleomycin Control)", "setting": "[4]; Day 21, 14 days of treatment", "value": "73.8 (3.13) Percent"}, {"measurement": "Mean (SEM) Percent Body Weight Change from Baseline", "setting": "[4]; Day 21, 14 days of treatment", "value": "2.71 (1.48) Percent"}, {"measurement": "Mean (SEM) Collagen Content in BALF (Percent of Bleomycin Control)", "setting": "[4]; Sircol assay, Day 21", "value": "49.6 (6.48) Percent"}, {"measurement": "Mean (SEM) Ashcroft Score (Percent of Bleomycin Control)", "setting": "[4]; histopathology, Day 21", "value": "80.73 (7.24) Percent"}, {"measurement": "Mean Percent Inhibition of alpha-SMA Expression", "setting": "[5]; peptide 0.00316 μM", "value": 6.25, "unit": "%"}, {"measurement": "Mean Percent Inhibition of alpha-SMA Expression", "setting": "[5]; peptide 0.01 μM", "value": 1.25, "unit": "%"}, {"measurement": "Mean Percent Inhibition of alpha-SMA Expression", "setting": "[5]; peptide 0.0316 μM", "value": "−5.63", "unit": "%"}, {"measurement": "Mean Percent Inhibition of alpha-SMA Expression", "setting": "[5]; peptide 0.1 μM", "value": "−5.63", "unit": "%"}, {"measurement": "Mean Percent Inhibition of alpha-SMA Expression", "setting": "[5]; peptide 0.316 μM", "value": 4.06, "unit": "%"}, {"measurement": "Mean Percent Inhibition of alpha-SMA Expression", "setting": "[5]; peptide 1 μM", "value": 28.1, "unit": "%"}, {"measurement": "Mean Percent Inhibition of alpha-SMA Expression", "setting": "[5]; peptide 3.16 μM", "value": 81.6, "unit": "%"}, {"measurement": "Mean Percent Inhibition of alpha-SMA Expression", "setting": "[5]; peptide 10 μM", "value": 88.1, "unit": "%"}]}
